Calls of active or inactive are those of the source.
Legend:
[1] = cytotoxicity in HEK-293T cells, dose response, cytotoxicity control for TCR NF-kB inhibitor project, luminescence, T-cell screen hits (AID 489026); type: functional, cell-based;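 also: cells exposed to compound about 14 hours before the viability readout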
[2] = cytotoxicity toward DRD oncogenic fibroblasts, dose response, cell-based, non-viral oncogenic, luminescence (AID 1934); type: functional; conditions: Homo sapiens
BJ [3] = test: cytotoxicity toward BJ-TERT fibroblasts, dose response, cell-based, RAS-independent, luminescence (AID 1933); type: functional; conditions: Homo sapiens
[4] = Luminescence Cell-Based Dose Response HTS to Identify Inhibitors of 5'UTR Stem-Loop Driven Prion Protein mRNA Translation in H4 Neuroglioblastoma Cells. [Related pubchem assays: 1827 (Project Summary), 1813 (Primary HTS)]; type: functional
BJ [5] = test: cells; type: functional, cell-based; conditions: Homo sapiens
BJ [6] = test: cytotoxicity toward BJ-TERT-LT-ST fibroblasts, dose response, cell-based, RAS-independent, luminescence (AID 1935); type: functional; conditions: Homo sapiens;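 also: BJ fibroblasts immortalized with TERT plus LT and ST oncogenes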
[7] = inhibitors of firefly luciferase expression or activity, dose response, H4 neuroglioma cells, luminescence (AID 1990); type: functional, cell-based
[8] = target: Glyceraldehyde-3-phosphate dehydrogenase (Homo sapiens, UniProt P04406)
[9] = target: T1, Alkaline phosphatase, tissue-nonspecific isozyme (Homo sapiens, UniProt P05186); test: human TNAP enzyme inhibitors, SAR follow-up, biochemical, luminescent, dose response (AID 1056)
T1 sequence (P05186 whole entry): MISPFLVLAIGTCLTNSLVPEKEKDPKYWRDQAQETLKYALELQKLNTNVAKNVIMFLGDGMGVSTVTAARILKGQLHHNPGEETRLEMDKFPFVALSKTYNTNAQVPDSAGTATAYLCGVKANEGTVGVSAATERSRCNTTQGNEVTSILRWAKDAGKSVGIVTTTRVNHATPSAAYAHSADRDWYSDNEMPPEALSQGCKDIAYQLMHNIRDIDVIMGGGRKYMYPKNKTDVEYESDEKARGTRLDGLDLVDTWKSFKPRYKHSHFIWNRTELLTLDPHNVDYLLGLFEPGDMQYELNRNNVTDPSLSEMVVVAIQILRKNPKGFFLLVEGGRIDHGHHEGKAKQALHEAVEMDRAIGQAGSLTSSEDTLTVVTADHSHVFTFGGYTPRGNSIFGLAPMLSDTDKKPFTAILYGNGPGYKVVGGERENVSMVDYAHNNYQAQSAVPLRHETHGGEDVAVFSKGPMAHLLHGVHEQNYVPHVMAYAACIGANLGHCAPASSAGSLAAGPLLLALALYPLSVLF

[10] = target: T2, Short transient receptor potential channel 4 (Mus musculus, UniProt Q9QUQ5); test: mouse TRPC4 channel inhibitors, dose response, cell-based, HEK293 TRPC4/mu-opioid, Fluo-4 calcium (AID 434942); type: functional;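 also: potency of inhibitors blocking the TRPC4 calcium response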
T2 sequence (Q9QUQ5 whole entry): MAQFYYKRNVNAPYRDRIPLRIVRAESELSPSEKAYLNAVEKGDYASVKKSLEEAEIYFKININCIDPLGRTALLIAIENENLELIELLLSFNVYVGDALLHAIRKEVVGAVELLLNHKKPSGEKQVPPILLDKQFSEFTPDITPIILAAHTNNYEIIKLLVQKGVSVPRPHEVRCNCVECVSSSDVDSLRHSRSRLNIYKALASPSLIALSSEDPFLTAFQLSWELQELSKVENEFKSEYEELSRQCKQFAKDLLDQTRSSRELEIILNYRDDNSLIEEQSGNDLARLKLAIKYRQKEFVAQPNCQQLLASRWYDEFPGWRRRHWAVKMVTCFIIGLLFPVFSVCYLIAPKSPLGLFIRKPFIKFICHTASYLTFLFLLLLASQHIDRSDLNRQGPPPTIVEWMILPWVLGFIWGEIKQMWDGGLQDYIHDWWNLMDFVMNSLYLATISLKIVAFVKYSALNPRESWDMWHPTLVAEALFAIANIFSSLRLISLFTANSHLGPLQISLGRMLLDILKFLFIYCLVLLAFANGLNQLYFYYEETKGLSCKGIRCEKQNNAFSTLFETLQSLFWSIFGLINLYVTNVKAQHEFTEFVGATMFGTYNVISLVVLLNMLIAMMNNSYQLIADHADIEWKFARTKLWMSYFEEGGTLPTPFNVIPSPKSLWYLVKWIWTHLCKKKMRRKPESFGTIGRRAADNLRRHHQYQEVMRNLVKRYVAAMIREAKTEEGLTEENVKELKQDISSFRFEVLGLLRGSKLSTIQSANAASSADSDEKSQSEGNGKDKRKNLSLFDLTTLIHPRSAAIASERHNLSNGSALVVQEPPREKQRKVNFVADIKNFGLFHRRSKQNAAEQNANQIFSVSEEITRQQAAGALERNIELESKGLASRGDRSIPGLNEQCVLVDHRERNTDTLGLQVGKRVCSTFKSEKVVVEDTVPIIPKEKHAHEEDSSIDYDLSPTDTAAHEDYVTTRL

Escherichia coli [11] = test: microbe, parasite or virus in culture
[12] = target: Glucose-6-phosphate 1-dehydrogenase (Homo sapiens, UniProt P11413); test: human G6PD enzyme inhibitors, dose response, selectivity assay for P. falciparum G6PD inhibitor project, biochemical, fluorescence (AID 504792); type: functional
HEK293 [13] = test: cells; type: functional, cell-based; conditions: Homo sapiens
[14] = inhibitors of clade B AD8 Env fusion, dose response, cell-based, cherry-pick (AID 652062); type: functional;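 also: luciferase signal from cell-cell fusion driven by HIV-1 clade B AD8 Env; potency is for inhibitors of fusion seen as a drop in luminescence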
HEK293 [15] = test: NOD2 signaling inhibitors in MDP-stimulated cells, cell-based, uHTS, luminescence (AID 2001); type: functional; conditions: Homo sapiens
HEK293 [16] = test: NOD1 signaling inhibitors, primary screen, cell-based, luminescence, uHTS (AID 1578); type: functional; conditions: Homo sapiens
HEK293 [17] = test: cells; type: functional, cell-based; conditions: Homo sapiens; remark: listed apart in the source
Escherichia coli [18] = test: microbe, parasite or virus in culture; remark: listed apart in the source
[19] = target: T3, Rac GTPase-activating protein 1 (Homo sapiens, UniProt Q9H0H5); test: MgcRacGAP GTPase-activating activity inhibitors, confirmation, biochemical, ADP Hunter fluorescence, primary and confirmatory (AID 624330); type: functional
T3 sequence (Q9H0H5 whole entry): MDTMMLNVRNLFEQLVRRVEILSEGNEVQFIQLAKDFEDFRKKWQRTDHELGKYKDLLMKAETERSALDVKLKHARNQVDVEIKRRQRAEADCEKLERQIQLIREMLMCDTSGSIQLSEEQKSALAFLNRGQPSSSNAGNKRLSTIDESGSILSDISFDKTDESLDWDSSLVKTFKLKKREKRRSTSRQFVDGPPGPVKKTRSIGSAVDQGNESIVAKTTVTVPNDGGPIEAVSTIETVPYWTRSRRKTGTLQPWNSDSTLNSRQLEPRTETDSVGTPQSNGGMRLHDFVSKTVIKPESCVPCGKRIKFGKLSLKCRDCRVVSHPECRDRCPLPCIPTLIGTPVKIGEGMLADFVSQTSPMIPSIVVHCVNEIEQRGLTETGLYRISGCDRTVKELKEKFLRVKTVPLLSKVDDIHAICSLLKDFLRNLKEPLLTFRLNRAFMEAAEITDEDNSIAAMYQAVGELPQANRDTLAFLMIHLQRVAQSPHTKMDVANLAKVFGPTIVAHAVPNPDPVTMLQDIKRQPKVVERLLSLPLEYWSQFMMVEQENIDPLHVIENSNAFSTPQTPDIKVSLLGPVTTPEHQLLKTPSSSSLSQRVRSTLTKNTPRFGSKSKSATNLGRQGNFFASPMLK

[20] = target: T4, DNA repair protein RAD52 homolog (Homo sapiens, UniProt P43351); type: functional, biochemical
T4 sequence (P43351 whole entry): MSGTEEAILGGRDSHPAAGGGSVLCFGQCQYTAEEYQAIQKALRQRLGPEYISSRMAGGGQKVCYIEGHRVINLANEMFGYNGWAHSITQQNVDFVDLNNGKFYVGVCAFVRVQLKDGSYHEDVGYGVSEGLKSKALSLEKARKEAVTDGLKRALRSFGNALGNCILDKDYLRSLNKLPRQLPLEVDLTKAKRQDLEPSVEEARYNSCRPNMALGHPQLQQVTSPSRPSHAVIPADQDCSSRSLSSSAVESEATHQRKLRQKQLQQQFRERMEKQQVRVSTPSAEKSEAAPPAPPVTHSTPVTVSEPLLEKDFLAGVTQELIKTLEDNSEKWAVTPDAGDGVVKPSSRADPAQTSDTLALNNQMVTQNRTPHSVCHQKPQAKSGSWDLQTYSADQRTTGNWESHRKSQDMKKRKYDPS

[21] = target: T5, Corticotropin-releasing factor receptor 2/Corticotropin-releasing factor-binding protein (Homo sapiens, UniProt P24387+Q13324); test: Dose Response confirmation of uHTS hits for small molecule antagonists of the CRF-binding protein and CRF-R2 receptor complex.; type: functional; conditions: read-out: IC50_Mean
T5 sequence (Q13324 whole entry): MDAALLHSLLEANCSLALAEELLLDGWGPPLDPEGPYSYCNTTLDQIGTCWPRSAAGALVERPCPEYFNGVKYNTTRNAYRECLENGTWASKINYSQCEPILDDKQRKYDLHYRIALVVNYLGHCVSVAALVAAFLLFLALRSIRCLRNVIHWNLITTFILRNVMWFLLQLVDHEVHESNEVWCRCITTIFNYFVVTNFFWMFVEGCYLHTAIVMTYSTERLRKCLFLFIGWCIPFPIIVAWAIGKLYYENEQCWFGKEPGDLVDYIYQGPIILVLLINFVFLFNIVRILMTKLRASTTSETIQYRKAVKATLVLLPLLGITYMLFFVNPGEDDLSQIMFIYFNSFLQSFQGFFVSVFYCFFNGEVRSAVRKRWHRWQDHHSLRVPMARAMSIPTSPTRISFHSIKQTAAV
T5 sequence (P24387 whole entry): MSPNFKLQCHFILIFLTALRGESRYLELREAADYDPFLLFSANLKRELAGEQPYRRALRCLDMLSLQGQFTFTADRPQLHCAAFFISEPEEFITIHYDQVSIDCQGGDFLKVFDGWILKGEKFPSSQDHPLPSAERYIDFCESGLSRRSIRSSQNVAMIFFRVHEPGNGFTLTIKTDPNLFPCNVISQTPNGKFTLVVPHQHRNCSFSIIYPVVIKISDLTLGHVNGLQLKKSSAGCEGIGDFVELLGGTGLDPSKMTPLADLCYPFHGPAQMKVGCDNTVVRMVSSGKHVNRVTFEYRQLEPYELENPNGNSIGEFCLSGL

[22] = target: T5, Corticotropin-releasing factor receptor 2/Corticotropin-releasing factor-binding protein; test: activators of CRF receptor 2 with binding protein – uHTS hits, confirmation (AID 602473); type: functional; conditions: read-out: EC50_Mean

Sequence of Glucose-6-phosphate 1-dehydrogenase (P11413 whole entry): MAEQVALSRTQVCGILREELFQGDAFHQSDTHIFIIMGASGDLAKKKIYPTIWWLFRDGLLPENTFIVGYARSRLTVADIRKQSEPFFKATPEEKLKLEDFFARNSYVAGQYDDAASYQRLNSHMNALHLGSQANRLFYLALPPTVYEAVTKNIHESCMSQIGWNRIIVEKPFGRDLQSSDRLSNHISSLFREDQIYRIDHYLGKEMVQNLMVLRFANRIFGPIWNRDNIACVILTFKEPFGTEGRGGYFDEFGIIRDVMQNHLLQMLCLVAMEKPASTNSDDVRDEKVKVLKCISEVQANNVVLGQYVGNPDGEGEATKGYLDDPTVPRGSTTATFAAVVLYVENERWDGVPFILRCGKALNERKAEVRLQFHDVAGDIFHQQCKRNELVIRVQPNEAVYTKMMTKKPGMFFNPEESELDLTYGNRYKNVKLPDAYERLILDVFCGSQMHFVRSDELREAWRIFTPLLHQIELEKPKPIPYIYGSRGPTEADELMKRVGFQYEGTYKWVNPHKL
Sequence of Glyceraldehyde-3-phosphate dehydrogenase (P04406 whole entry): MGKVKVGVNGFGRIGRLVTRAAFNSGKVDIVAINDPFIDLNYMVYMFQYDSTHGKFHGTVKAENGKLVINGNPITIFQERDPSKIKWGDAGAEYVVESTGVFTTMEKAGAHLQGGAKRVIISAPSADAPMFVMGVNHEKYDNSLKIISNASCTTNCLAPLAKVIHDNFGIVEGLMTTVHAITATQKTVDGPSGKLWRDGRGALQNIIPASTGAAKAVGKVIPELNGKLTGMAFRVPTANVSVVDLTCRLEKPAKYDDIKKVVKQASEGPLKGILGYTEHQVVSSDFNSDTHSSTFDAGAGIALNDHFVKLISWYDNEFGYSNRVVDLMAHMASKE

Cc1ccc2[nH]c(-c3cccc(F)c3)cc(=O)c2c1
IC50 [1]: > 80 µM (inactive)

COc1ccc(C2=NOC(C(=O)NCc3ccc(F)cc3)C2)cc1OC (centres undefined)
EC50 [2]: 18.3 µM (active)
EC50 (BJ [3]): 1.54 µM (inconclusive)
IC50 [1]: > 80 µM (inactive)
EC50 [4]: > 120 µM (not active)
EC50 (BJ [5]): 26 µM (active)
EC50 (BJ [6]): 5.72 µM (inconclusive)
EC50 [7]: 11.2 µM (active)

O=C1C2CC=CCC2C(=O)N1c1nc[nH]n1 (centres undefined)
IC50 [8]: > 100 µM (not active)
IC50 [9]: > 100 µM (inactive)

O=C(CSc1nc2ccccc2c(=O)n1CCCO)N1CCc2ccccc21
EC50 [10]: 0.596 µM (active)

Clc1ccc(-c2csc(-c3cccnc3)n2)s1
AC50 (Escherichia coli [11]): 276 µM (active)

c1ccc(OCc2nnc3n2N=C(c2ccccc2)CS3)cc1
IC50 [12]: > 80 µM (inactive)

Cc1ccccc1Cn1c(=N)n(CC(O)c2ccco2)c2ccccc21 (centres undefined)
EC50 [10]: 0.668 µM (active)

O=C(Nc1nc(-c2ccc3c(c2)OCO3)cs1)c1ccncc1
IC50 (HEK293 [13]): 4.5 µM (active)
AC50 [14]: 4.67 µM (active)
IC50 (HEK293 [15]): 4.79 µM (active)
EC50 (HEK293 [16]): 3.32 µM (active)
IC50 (HEK293 [17]): 11 µM (active)

CCCCc1nc2ccccc2c(N)c1CCC.O=C(O)c1cc([N+](=O)[O-])ccc1Cl
EC50 [10]: 1.19 µM (active)

CCOc1ccccc1NS(=O)(=O)c1c(C)noc1C
IC50 [12]: > 80 µM (inactive)

Cn1c(C(=O)OCC(=O)NCC2CCCO2)cc2sccc21 (centres undefined)
AC50 (Escherichia coli [11]): 149 µM (active)
AC50 (Escherichia coli [18]): 25.8 µM (active)

C=CCOc1cccc(C(=O)N2CCCC(CCC(=O)NCc3ccccc3F)C2)c1 (centres undefined)
AC50 (Escherichia coli [11]): 41.3 µM (active)

c1cc2c(cc1NC1CCCCCC1)OCO2
IC50 [19]: 48.4 µM (active)
IC50 [12]: > 80 µM (inactive)

NCC[C@H](O)C(=O)N[C@@H]1C[C@H](N)[C@@H](O[C@H]2O[C@H](CN)[C@@H](O)[C@H](O)[C@H]2O)[C@H](O)[C@H]1O[C@H]1O[C@H](CO)[C@@H](O)[C@H](N)[C@H]1O
IC50 [19]: 113 µM (active)
AC50 [20]: 5.91 µM (active)
IC50 [21]: > 47.1 µM (inactive)
EC50 [22]: > 53 µM (inactive)
AC50 (Escherichia coli [11]): 4.69 µM (active)
AC50 (Escherichia coli [18]): 14.9 µM (active)

C/C(Cn1nnc([N+](=O)[O-])n1)=N\NC(=O)c1ccc(O)cc1O
IC50 [12]: > 80 µM (inactive)
AC50 (Escherichia coli [18]): 84.9 µM (active)

From ChEMBL document CHEMBL1201862, “PubChem BioAssay data set” (2004)
